Test results: ChEMBL document CHEMBL3507680, “University of Dundee, Gates Library screen for HepG2 cell viability”

Test: Human HepG2 cell viability assay in 384 well format
Type: toxicity, cell-based
Design: dose 125 nL, time 70.5 hour; cytotoxicity at 70.5 h: concentration not given beside the values
Conditions: HepG2 cells, read-out: Inhibition

| Structure (SMILES) | cytotoxicity at 70.5 h |
| --- | --- |
| Cc1ccc(Cl)cc1N1CCC(CNC(=O)CC(F)(F)F)C1 (stereo not drawn) | 1.39% |
| CCSC(C)C(=O)N1CCC(c2nn(C)c(=O)n2-c2ccccc2)CC1 (stereo not drawn) | -7.97% |
| O=C1CCCN1CCCN1CCCC(Cn2cncn2)C1 (stereo not drawn) | 3.37% |
| Cc1cccc(C(=O)N2CCCCC2c2nc3cc(F)ccc3[nH]2)n1 (stereo not drawn) | -11.8% |
| CS(=O)(=O)N1CCCC1C(=O)Nc1cnc2n1CCCC2 (stereo not drawn) | -20.4% |
| COc1ccc(C(=O)CN(C2=NCCCCC2)c2ccccc2)cc1 | -25.8% |
| CCSc1nc(N)c(NC(=O)c2ccc(C)cc2)c(=O)[nH]1 | 10.5% |
| COc1ccc(CNC(C)c2cnn(C)c2)cc1OC1CCCC1 (stereo not drawn) | -3.45% |
| COc1ccc(CN2CCn3cc(CNC(=O)C4CCC4)nc3C2)cc1 | 7.38% |
| CCc1ccc(-c2ncc3c(n2)N(C)CCN(CCN(C)C)C3=O)cc1 | -5.02% |
| Cn1ccnc1CNc1c(F)cccc1-n1cccn1 | -7.82% |
| CN(C)c1ncc(NS(=O)(=O)c2ccc(OC(F)(F)F)cc2)cn1 | 3.34% |
| CCN(CC(=O)Nc1c(C)nn(C)c1C)CC(O)c1ccc(C)cc1 (stereo not drawn) | -5.69% |
| Cc1cnn(CC2CCCCN2C(=O)c2ccccc2-n2cccn2)c1 (stereo not drawn) | -17.3% |
| O=c1[nH]nc2c(S(=O)(=O)N3CCCC3)cccn12 | -4.02% |
| Cc1ccccc1N1CCCN(C(=O)CC2CN(C(C)C)CCO2)CC1 (stereo not drawn) | 0.214% |
| Cc1ccc(S(=O)(=O)Nc2ccc(N3CCSCC3)c(C(=O)O)c2)s1 | -10.2% |
| Cc1ccc(-c2cc(-c3c(C)nn(CCO)c3C)c(C#N)c(N)n2)cc1 | 0.809% |
| CN(c1ncnc2sccc12)C1CCCN(c2cccnn2)C1 (stereo not drawn) | -13.9% |
| C=C(C)COc1cccc(C(=O)N2CCC3(CCOCC3)CC2)c1 | 3.55% |
| COc1cccc(CNC(=O)C(C)N2CC(n3nc(C)cc3C)C2)c1 (stereo not drawn) | -12.9% |
| c1cncc(COCc2nnc3n2CCN(Cc2ccco2)C3)c1 | 1.97% |
| Cc1c[nH]nc1C1CCCN(C(=O)Cn2cccn2)C1 (stereo not drawn) | -5.23% |

| Structure (SMILES) | cytotoxicity at 70.5 h |
| --- | --- |
| CCC(C)(COc1ncccc1Cl)NCC(=O)Nc1ccc(Br)cn1 (stereo not drawn) | 38.6% |
| CCN(C(=O)CSc1ccc(C(F)(F)F)cn1)C1CC1 | 7.64% |
| Cc1ccccc1CC(=O)N1CCOCC1c1c(C)n[nH]c1C (stereo not drawn) | -6.23% |
| Cc1nc(CN2C[C@@H](NS(=O)(=O)N(C)C)[C@H](C(C)C)C2)cs1 | -1.78% |
| CN(C)c1ccc(CNC(=O)NCCc2cccs2)cn1 | -12.3% |
| Cc1ccc(CN2CCC(O)(Cn3nc(-c4cccs4)oc3=O)CC2)o1 | -1.27% |
| Cc1ccc(Nc2c(C#N)c(=O)n(C)c(=O)n2C)cc1F | -4.93% |
| CCOc1ccc(C(=O)N2CCCC(n3nc(C)nc3C)C2)cc1 (stereo not drawn) | 1.39% |
| Cc1nonc1-c1nc(C(C)C)nn1-c1ccc2c(c1)OCO2 | -3.15% |
| CCN(CC)C(=O)CN1CCC(c2nc(C)c3c(n2)N(C)CCC3)CC1 | 17.6% |
| Cc1c(Cl)c(C(=O)N2C[C@@H](C(=O)O)[C@H](c3cccnc3)C2)nn1C | 8.35% |
| Cc1cc(NC(N)=O)ccc1OCC(F)(F)F | -2.1% |
| COc1ccccc1C(C)(C)NCc1ccco1 | -19.1% |
| O=C(NCC1CCS(=O)(=O)C1)c1ccc2cccc(Cl)c2n1 (stereo not drawn) | -5.5% |
| Cc1sc2c(C3CCCN(C(C)C)C3)nc(C)n2c1C (stereo not drawn) | -3.36% |
| Cc1nc(C(=O)N2CCCC(c3nc(C(C)C)cs3)C2)c[nH]1 (stereo not drawn) | 12.6% |
| O=C(NCc1nncn1C1CC1)C1(c2ccc(F)cc2)CCCC1 | 14.3% |
| O=C1NCCN(CC2CC2)C12CCN(Cc1ccccc1)CC2 | 13.9% |
| CN(C)c1ccc2c(c1)CN(C(=O)c1ccco1)C2c1cnco1 (stereo not drawn) | 32.5% |
| Cc1ccc(CNCc2nnc3n2CCCC3C(F)(F)F)s1 (stereo not drawn) | -10.1% |
| COc1c(C2CCCN2CC(=O)Nc2ccncc2)c(C)nn1C (stereo not drawn) | 6.03% |
| COc1ccccc1S(=O)(=O)NCC(c1cccn1C)N(C)C (stereo not drawn) | -2.15% |
| CN(Cc1nnc2ccccn12)C(=O)CC1CCCCC1 | -8.16% |

| Structure (SMILES) | cytotoxicity at 70.5 h |
| --- | --- |
| Cc1cc(C)n(NC(=O)c2cccc3c2OCC3)c(=O)c1 | -6.18% |
| O=C1[C@H]2CN(c3ncccn3)C[C@H]2CN1CC1CC1 | -124% |
| C[S+]([O-])c1nncn1CC(=O)c1ccc2c(c1)CCO2 (stereo not drawn) | -2.98% |
| Cc1ccc(CCCC(=O)N2CCC(=O)Nc3cccnc32)s1 | 12.9% |
| CSCCC(=O)N1CCCCC1CCn1cccn1 (stereo not drawn) | -6.75% |
| O=C(NCC1CC1)C1CN(c2ncccn2)Cc2ccnn2C1 (stereo not drawn) | -14.5% |
| CC(=O)N1CCC(c2nc3ccc(-c4cccc(F)c4)cn3n2)CC1 | -9.34% |
| Cn1cccc1C1CCCCCN1C(=O)c1ccc(NC2CC2)nc1 (stereo not drawn) | 12.8% |
| Cn1ncc(N2CCC(CNC3CC(C)(C)CC(C)(C)C3)C2)cc1=O (stereo not drawn) | 7.5% |
| CC(C)Cn1cncc1CNC1CCCNC1 (stereo not drawn) | -4.78% |
| CC(=O)Nc1ccc(Cl)c(C(=O)N(C)C(C)c2nccs2)c1 (stereo not drawn) | -3.55% |
| CC(=O)N1CCC(c2cnc(-c3c(C)n[nH]c3C)cn2)CC1 | -3.69% |
| CC(=O)N1CCC(NC(=O)c2cc(Cl)ccc2-n2cnnn2)CC1 | -6.61% |
| O=C(c1c[nH]c(=O)c(Cl)c1)N1C[C@@H]2CC[C@H](C1)N(Cc1ccccc1)C2 | -1.59% |
| CN1CCc2cc(C(CNS(=O)(=O)c3cccs3)N3CCCC3)ccc21 (stereo not drawn) | 30.7% |
| CCCNC(=O)c1cc(C(C)C)nc(N2CCCC2)n1 | -8.39% |
| COCCNC(=O)C1CC(=O)N(c2n[nH]c3cccc(F)c23)C1 (stereo not drawn) | -25% |
| CNC(=O)NC(=O)C(C)N1CCC(c2c[nH]c3ccc(OC)cc23)CC1 (stereo not drawn) | -2.98% |
| Nc1nc(N)c2c(n1)OC1(CCN(C(=O)CC3CCCCN3)CC1)C2 (stereo not drawn) | -5.34% |
| Cc1c(CN2CCCC2c2cncc(CN3CCCC3)n2)cnn1C (stereo not drawn) | 1.84% |
| CNC(=O)Cc1ccc(-n2ccnc2-c2ccc(C(=O)O)s2)cc1 | -5.64% |
| CC(C)OCCCNS(=O)(=O)c1ccc2c(c1)NC(=O)C(C)O2 (stereo not drawn) | -4.7% |
| Cc1cc2n(n1)CC(CNCc1ccc(Oc3ccccc3)nc1)CN2 (stereo not drawn) | 21.7% |

| Structure (SMILES) | cytotoxicity at 70.5 h |
| --- | --- |
| CC(C)NCc1cccnc1N1CCN(c2ccccn2)CC1 | -11.6% |
| CC(C)Nc1ncnc2c1CCN(C(=O)Cc1cccs1)CC2 | -7.55% |
| CC(=O)N1CCN(C(=O)NC(C)C)CC2(CC(=O)N(C)C2)C1 (stereo not drawn) | -13.5% |
| Cc1c[nH]c(CN(C)C(=O)[C@]23CNC[C@H]2CNC3)n1 | -4.74% |
| CN(C)CCOCc1cncc2c1CCN(C(=O)c1cscn1)C2 | -3.85% |
| CC(C(=O)NCc1ccc(N2CCCCCC2)nc1)n1cncn1 (stereo not drawn) | 3.18% |
| COc1ccc(C2SCC(=O)Nc3ccsc32)cc1OC (stereo not drawn) | -11.5% |
| COc1ccc(S(=O)(=O)Cc2cc(C)on2)cc1 | -4.34% |
| O=C(c1cnc(-c2noc3cc(N4CCCC4)ccc23)s1)N1CCCC1 | -4.44% |
| COc1cccc(CN(C)Cc2cccc(C#N)c2)c1OC | -3.83% |
| NC(=O)N1CCC2(CCN(Cc3cccc(F)c3)CC2)CC1 | -7.24% |
| CCOCCCNCc1cc2c(C)cc(C)cc2n2c(=O)n(C)nc12 | -0.158% |
| CC(C)c1noc(C(C)N2CCN(Cc3cccs3)CC2)n1 (stereo not drawn) | 12.6% |
| Oc1nc(N2CCOCC2)nc2nccc(-c3ccccn3)c12 | -4.58% |
| Cc1ccc(-c2nnc(CNCCn3cc(C)cn3)o2)cc1 | -18.3% |
| O=C1NCC2(CCCN(Cc3cccnc3)C2)Oc2ccccc21 (stereo not drawn) | -7.07% |
| COc1cc2nc(C)n(CC(=O)NCCCN(C)C)c(=O)c2cc1OC | 6.18% |
| COc1ccc(CN(C)C(=O)CN2CC(n3cc(C)cn3)C2)cc1F | -2.77% |
| Cc1[nH]c(=O)sc1S(=O)(=O)N1CCCC1C(=O)NC1CC1 (stereo not drawn) | -6.92% |
| CCC(C(=O)NCc1ccncc1)N(c1cccc(C)c1)S(C)(=O)=O (stereo not drawn) | -9.28% |
| Cc1cccc(C)c1OCCNC(=O)CNC(=O)C1CCCC1 | 23.5% |
| O=C(O)c1ccccc1-c1c(-c2ccccc2)ncn1CC1CCCO1 (stereo not drawn) | 17.5% |
| CCc1noc(C(C)N2CCN(Cc3nc(C)c(C)o3)CC2)n1 (stereo not drawn) | 23.9% |

| Structure (SMILES) | cytotoxicity at 70.5 h |
| --- | --- |
| COc1cccc(OCCc2cncc(C(N)=O)c2)c1 | -9.46% |
| CCN(CC)C(=O)Cn1ccc2cc(NC(=O)NC3CC3)ccc21 | -3.42% |
| CC(C)n1c(=O)c2sccc2n(CC(=O)Nc2ccccc2)c1=O | -11% |
| CC(C)NC(=O)C1(Cc2ccccc2-c2ccccc2)CCCNC1 (stereo not drawn) | -1.97% |
| CC(C)c1n[nH]c(C2CN(Cc3ccno3)CCO2)n1 (stereo not drawn) | 0.21% |
| Cc1cnn(CC2CCCCN2C(=O)Cc2ccc(C#N)cc2)c1 (stereo not drawn) | -7.76% |
| Cc1ccc(CNC(=O)c2ccc(S(=O)(=O)N3C[C@@H]4C[C@H]3CN4)cc2)o1 | -2.7% |
| CC(C)C(NCc1ccc(Cn2cncn2)cc1)c1ccc(F)cn1 (stereo not drawn) | -0.795% |
| COCCN1CCC12CCN(C(=O)c1ccc(C)nc1)C2 (stereo not drawn) | -16.4% |
| CN(C)CCN1CCOCC2(CCCN(C(=O)c3cccc(O)c3)C2)C1 (stereo not drawn) | -2.03% |
| Cc1ccc(C(=O)Nc2cc(C(N)=O)ccc2N2CCCCC2)cc1F | -2.35% |
| O=C1CC(c2ccccc2)c2c(n3ccsc3nc2=O)N1 (stereo not drawn) | -20% |
| CCCc1cc(=O)[nH]c(-n2nc(-c3cccs3)cc2N)n1 | -12.8% |
| CCSc1ccc(C(=O)N2CCC3(CCC(=O)N(C)C3)CC2)s1 | -9.54% |
| Cc1cc(C)c2c(N3CCC(O)(Cn4ccnc4)CC3)ncnc2n1 | -0.18% |
| COCC(=O)NCC(Cc1cccc(F)c1)n1cccc1 (stereo not drawn) | 0.782% |
| CCCn1nc(-c2nc(COc3ccccc3)no2)ccc1=O | -7.31% |
| CC(CN1CCCC1)C(=O)N1CCC(c2nccn2CC2CC2)CC1 (stereo not drawn) | 12.9% |
| COCCC(=O)N1CCCC(c2nc(O)cc(-c3ccncc3)n2)C1 (stereo not drawn) | 18% |
| CC(C)C(C)(O)CNc1cccc(F)c1C#N (stereo not drawn) | -7.64% |
| Nc1nc(N)c2c(n1)OC1(CCN(Cc3nccs3)C1)C2 (stereo not drawn) | -6.73% |
